Patent US7776826B2, “Method for fostering bone formation and preservation” (Unigene Laboratories, Inc., priority 2004, dated 2010)

Assays:
Male Sprague-Dawley rats [1] = experiment: Serum osteocalcin concentration on day of sacrifice, Groups A-J; format: in vivo, rat; conditions: bmx rats; for serum osteocalcin level, in words: up to 21 days; for Osteocalcin mean: serum
From the text: FIG. 5 provides a series of measurements of the serum osteocalcin concentration (in ng/ml) in the blood of the rats which are the subjects of FIGS. 3-4 on the day of sacrifice. The meaning of the abbreviations is the same as that in FIGS. 3-4;
FIG. 5 provides a graphical representation of the osteocalcin levels determined, at the time of sacrifice, in the serum of rats subjected to the following treatment modalities: bmx+PBS; bmx+ parathyroid hormone (PTH[1-34]-NH2); bmx+salmon calcitonin (CT); and bmx+ parathyroid hormone (PTH[1-34]-NH2)+CT. It is well known by those of ordinary skill in this art that osteocalcin is a biochemical marker related to the number of osteoblasts, i.e, a measure of new bone growth, which may be measured in the blood serum of the animal. […] That is, administering CT reduces the rate of bone turn-over.
Table 4 additionally provides the standard deviations for the values obtained during each of the indicated analyses, which standard deviations are also indicated in FIG. 5.
On the day of sacrifice, each rat was euthanized in a CO2 chamber. The rat's blood was then collected via a cardiac puncture. The femurs were removed and fixed in a 4% formalin solution, after which they were dehydrated in a graded series of ethanol solutions.
The bones were thereafter subjected to a variety of sample analysis techniques. These included X-ray analysis wherein the femurs were X-rayed in individually sealed plastic bags; PIXIMUS analysis using a Lunar PIXIMUS scanner to measure bone mineral density in the bone marrow cavity of the femurs; MicroCT analysis; and blood analysis for osteocalcin, PTH, CT, NTX and growth factors.

Male Sprague-Dawley rats [2] = experiment: PIXIMUS (DEXA) analysis of femur distal marrow cavity BMD after left femur bone marrow ablation (bmx), Groups A-J; format: in vivo, rat
From the text: FIG. 1 is a graphical representation of the results of a PIXIMUS analysis of the femur distal marrow cavity bone mineral density (“BMD”) of groups of laboratory rats which were sacrificed at one-week intervals during a three-week test regimen. The PIXIMUS analyzer is available from Lunar Corp., Palo Alto, Calif. and provides Dual Energy X-Ray Absorptiometry (“DEXA”) data for small animals such as mice and rats. Male Sprague-Dawley rats (5 animals per group) aged 9 weeks were sacrificed and tested at time 0 and after 1, 2 and 3 weeks. The various groups were subjected to the following treatment modalities: Group A—left femur control; Group B—left femur sham; Group C—mechanical bone marrow ablation (bmx) to alter the contents of the bone marrow cavity of the left femur; Group D—mechanical bone marrow ablation treatment (bmx) of the left femur, coupled with the administration of an amidated parathyroid hormone truncate (PTH[1-34]-NH2) during days 1-21; and Group E—a right (non-bmx) femur BMD measurement of rats treated during days 1-21 with an amidated parathyroid hormone truncate (PTH[1-34]-NH2) wherein the rat's left femur had undergone a bone ablation (bmx) treatment;
FIG. 2 is a graphical representation of the results of a PIXIMUS analysis of the femur distal marrow cavity BMD of a second set of groups of male Sprague-Dawley rats (5 animals per group) aged 9 weeks which were sacrificed and tested at time 0 and after 1, 2 and 3 weeks. The various groups were subjected to the following treatment modalities: Group F—left femur control; Group G—left femur sham; Group H—mechanical bone marrow ablation (bmx) to alter the contents of the bone marrow cavity of the left femur; Group I—mechanical bone marrow ablation (bmx) of the left femur, coupled with administration of an amidated parathyroid hormone truncate (PTH[1-34]-NH2) during days 1-7, followed by the administration of a salmon calcitonin (sCT) antiresorptive agent during days 7-21; and Group J—a right femur BMD measurement of rats treated with an amidated parathyroid hormone truncate (PTH[1-34]-NH2) wherein the rat's left femur had undergone a bone marrow ablation (bmx) treatment;
Absent the bone anabolic agent, the initial burst of bone formation is quickly followed by the resorption of newly formed bone by osteoclasts (see, e.g., the Group C curve in FIG. 1). […] Table 1 (below) sets forth the values upon which the curves obtained with Groups A-E in FIG. 1 are based. As no readings were taken for the Control (Group A) and Sham (Group B) groups at Week 1 and Week 2, these values were estimated for purposes of preparing the curves for these two Groups. Table 1, moreover, provides the standard deviations for the values obtained in each Group, which standard deviations are also indicated in FIG. 1.
As indicated herein the bmx treatment was always administered to the rats' left femur and never to the right femur. The non-ablated contralateral femur was analyzed, however, throughout the testing protocols described herein as a control used for detecting the systemic effect of the bone anabolic agent. That is, the results achieved with the contralateral (right) femur permit one to exclude the effect attributable to the bmx treatment. Moreover, analysis of the rats' right femur control also enabled the inventors to determine whether the bmx treatment of the left femur had any effect on other skeletal sites located within the body of the rat.
FIG. 2 is provided to illustrate, inter alia, the further beneficial effect achieved due to the overlapping (i.e., with PTH administration) or subsequent administration of the antiresorptive agent salmon calcitonin (sCT). First, a comparison of the curves obtained with Group H (bmx alone) and Group J (PTH+sCT with no bmx) to that obtained with Group I (bmx PTH+sCT) provide still further evidence of the synergistic effect attributable to the use of the method of the invention. […]

Substance | serum osteocalcin level, in words (Male Sprague-Dawley rats [1]) | Osteocalcin mean (Male Sprague-Dawley rats [1]; Day 0) [ng/mL] | Osteocalcin mean (Male Sprague-Dawley rats [1]; Day 7) [ng/mL] | Osteocalcin mean (Male Sprague-Dawley rats [1]; Day 14) [ng/mL] | Osteocalcin mean (Male Sprague-Dawley rats [1]; Day 21) [ng/mL] | bone formation / resorption by DEXA BMD curves, in words (Male Sprague-Dawley rats [2]; left femur with bmx) | BMD (DEXA) (Male Sprague-Dawley rats [2]; left femur with bmx, Week 0) | BMD (DEXA) (Male Sprague-Dawley rats [2]; left femur with bmx, Week 1) | BMD (DEXA) (Male Sprague-Dawley rats [2]; left femur with bmx, Week 2) | BMD (DEXA) (Male Sprague-Dawley rats [2]; left femur with bmx, Week 3) | BMD (DEXA) (Male Sprague-Dawley rats [2]; right (non-bmx) femur, Week 0) | BMD (DEXA) (Male Sprague-Dawley rats [2]; right (non-bmx) femur, Week 1) | BMD (DEXA) (Male Sprague-Dawley rats [2]; right (non-bmx) femur, Week 2) | BMD (DEXA) (Male Sprague-Dawley rats [2]; right (non-bmx) femur, Week 3)
PTH[1-34]-NH2 | highest and most consistent level of osteocalcin | 108.2 | 125.5 | 125.4 | 117.8 | unexpected increase in degree, speed and longevity of bone formation | 0.096 ± .007 gm/cm^2 | 0.166 ± .004 gm/cm^2 | 0.200 ± .030 gm/cm^2 | 0.190 ± .008 gm/cm^2 | 0.097 ± .008 gm/cm^2 | 0.124 ± .007 gm/cm^2 | 0.141 ± .007 gm/cm^2 | 0.154 ± .007 gm/cm^2
salmon calcitonin [CT, reference compound] | relatively steady state value of osteocalcin | 108.2 | 100.5 | 101 | 69.5 | significantly diminishes the proportion of the newly formed bone which is resorbed |  |  |  |  |  |  |  | 
